From ChEMBL document CHEMBL1201862, “PubChem BioAssay data set” (2004)
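Exposure lasted 48 hours, with cells grown in 96-well plates and compounds tested at five concentrations. Abbreviation: GI50, concentration required for 50% inhibition of growth.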 Active and inactive are the calls of the source. Rule as the data show it: active = GI50 up to about 1.1 µM and inactive = higher.

How the values were obtained:
Assay in all cases: DTP human tumour cell line panel, 48 h
[1] = tested on: COLO 205
[2] = tested on: EKVX
[3] = tested on: HOP-62
[4] = tested on: HT-29
[5] = tested on: NCI-H23
[6] = tested on: NCI-H460
[7] = tested on: NCI-H522
[8] = tested on: SF-268
[9] = tested on: SK-MEL-5
[10] = tested on: SNB-19
[11] = tested on: TK-10
[12] = tested on: UACC-62
[13] = tested on: UO-31
[14] = tested on: HOP-92
[15] = tested on: IGROV-1
[16] = tested on: M14
[17] = tested on: OVCAR-3

Measured: GI50

CC(=O)OC12/C(=N/O)CCCCCC1c1ccccc12 (stereo not given)
inactive: [1] > 100 µM | [2] 68.1 µM | [3] > 100 µM | [4] > 100 µM | [5] 70.8 µM | [6] > 100 µM | [7] 31.2 µM | [8] > 100 µM | [9] > 100 µM | [10] > 100 µM | [11] > 100 µM | [12] 95.5 µM | [13] 27.5 µM

Cc1ccc(/N=N/c2c(C)nn(-c3ccccc3)c2C)c(Br)c1
inactive: [1] > 100 µM | [2] > 100 µM | [3] > 100 µM | [14] > 100 µM | [4] 76.9 µM | [15] > 100 µM | [16] > 100 µM | [5] > 100 µM | [6] 62.8 µM | [17] > 100 µM | [8] > 100 µM | [9] 66.1 µM | [10] > 100 µM | [11] > 100 µM | [12] 89.9 µM

CCCCCCCCCCCCCCCCc1c(O)nc(NC#N)nc1C(=O)OC
inactive: [1] > 25 µM | [2] > 25 µM | [3] > 25 µM | [14] > 25 µM | [4] > 25 µM | [16] > 25 µM | [5] > 25 µM | [6] > 25 µM | [7] > 25 µM | [17] > 25 µM | [8] > 25 µM | [10] > 25 µM | [11] > 25 µM | [13] > 25 µM

O=C(Nc1nc2ncn(CCOC(=O)c3ccccc3)c2c(=S)[nH]1)c1ccccc1
inactive: [1] > 100 µM | [2] > 100 µM | [3] 28.2 µM | [14] 42.7 µM | [4] > 100 µM | [15] > 100 µM | [16] > 100 µM | [6] 48.1 µM | [7] 21 µM | [17] 43.1 µM | [8] 13.5 µM | [9] > 100 µM | [10] 71.9 µM | [11] > 100 µM | [12] 56.2 µM | [13] 61.7 µM

O=C(CCC(=O)N/N=C/c1ccccc1O)N/N=C/c1ccccc1O
inactive: [1] > 100 µM | [2] 20.9 µM | [14] 27.9 µM | [4] > 100 µM | [15] 33.9 µM | [5] 94.6 µM | [7] 53.2 µM | [17] 42.1 µM | [8] 18.8 µM | [9] > 100 µM | [10] 56.6 µM | [11] 29.4 µM | [12] 41.8 µM | [13] > 100 µM

CC1CN1c1c(C(=O)/C=C/c2ccc(Cl)cc2)c(-c2ccccc2)nn(C)c1=O (stereo not given)
inactive: [1] 1.96 µM | [2] 3.63 µM | [3] 2.82 µM | [14] > 10 µM | [4] 3.65 µM | [15] 3.05 µM | [16] 1.95 µM | [5] 2.77 µM | [6] 2.28 µM | [7] 2.18 µM | [17] 2.6 µM | [8] 3.98 µM | [10] 9.71 µM | [11] 2.92 µM | [12] 2.32 µM | [13] 6.44 µM

Cc1cc(C(O)CCCc2ccccc2)cc(C)c1O (stereo not given)
inactive: [1] 67.6 µM | [2] 20.5 µM | [3] 33.3 µM | [15] 83.6 µM | [16] 56.1 µM | [5] 39.8 µM | [6] 36.6 µM | [7] 27.4 µM | [17] 31.1 µM | [8] 28.4 µM | [9] 22.5 µM | [10] 14.6 µM | [11] 31.6 µM | [12] 35.9 µM | [13] 15.4 µM

O=C(COc1ccccc1Cl)N1N=C(c2ccccc2)CC1(O)c1ccccc1 (stereo not given)
inactive: [1] 18 µM | [3] 15.1 µM | [14] 22.3 µM | [4] 17 µM | [15] 17.9 µM | [16] 17 µM | [5] 12.1 µM | [6] 18 µM | [7] 41.9 µM | [17] 15.9 µM | [8] 24.6 µM | [10] 16.4 µM | [11] 17.1 µM | [12] 12.8 µM | [13] 10.1 µM

C=CCCn1nc(-c2ccccc2)oc1=O
inactive: [1] > 100 µM | [2] > 100 µM | [3] > 100 µM | [14] > 100 µM | [4] > 100 µM | [15] > 100 µM | [16] > 100 µM | [5] > 100 µM | [6] > 100 µM | [7] > 100 µM | [17] > 100 µM | [8] > 100 µM | [9] > 100 µM | [10] > 100 µM | [11] > 100 µM | [12] > 100 µM | [13] > 100 µM
